Key:
Staphylococcus aureus [1] = test: Antibacterial activity against methicillin-resistant Staphylococcus aureus 1111047-1 clinical isolate after 20 to 24 hrs by two-fold microdilution method; type: functional
Staphylococcus aureus [2] = test: Antibacterial activity against methicillin-resistant Staphylococcus aureus 11703 clinical isolate after 20 to 24 hrs by two-fold microdilution method; type: functional
Staphylococcus aureus [3] = test: Antibacterial activity against methicillin-resistant Staphylococcus aureus 125025 clinical isolate after 20 to 24 hrs by two-fold microdilution method; type: functional
Staphylococcus aureus [4] = test: Antibacterial activity against methicillin-resistant Staphylococcus aureus 1106003 clinical isolate after 20 to 24 hrs by two-fold microdilution method; type: functional
Staphylococcus aureus [5] = test: Antibacterial activity against methicillin-resistant Staphylococcus aureus 1212221 clinical isolate after 20 to 24 hrs by two-fold microdilution method; type: functional
Staphylococcus aureus [6] = test: Antibacterial activity against methicillin-resistant Staphylococcus aureus 120827 clinical isolate after 20 to 24 hrs by two-fold microdilution method; type: functional
Staphylococcus aureus [7] = test: Antibacterial activity against methicillin-resistant Staphylococcus aureus 111423 clinical isolate after 20 to 24 hrs by two-fold microdilution method; type: functional
Staphylococcus aureus [8] = test: Antibacterial activity against methicillin-resistant Staphylococcus aureus GLH15 clinical isolate after 20 to 24 hrs by two-fold microdilution method; type: functional
Staphylococcus aureus [9] = test: Antibacterial activity against methicillin-resistant Staphylococcus aureus 614019 clinical isolate after 20 to 24 hrs by two-fold microdilution method; type: functional
[10] = Solubility of the compound in water at 25 degC measured after shaking for 4 hrs by UV method; type: physicochemical; conditions: buffer, 4 h
Staphylococcus aureus [11] = test: Antibacterial activity against methicillin-resistant Staphylococcus aureus 109244 clinical isolate after 20 to 24 hrs by two-fold microdilution method; type: functional
Staphylococcus aureus [12] = test: Antibacterial activity against methicillin-resistant Staphylococcus aureus 519028 clinical isolate after 20 to 24 hrs by two-fold microdilution method; type: functional
Staphylococcus aureus [13] = test: Antibacterial activity against methicillin-resistant Staphylococcus aureus 202045 clinical isolate after 20 to 24 hrs by two-fold microdilution method; type: functional
Staphylococcus aureus [14] = test: Antibacterial activity against methicillin-resistant Staphylococcus aureus 102849 clinical isolate after 20 to 24 hrs by two-fold microdilution method; type: functional
Staphylococcus aureus [15] = test: Antibacterial activity against methicillin-resistant Staphylococcus aureus 111625 clinical isolate after 20 to 24 hrs by two-fold microdilution method; type: functional
Staphylococcus aureus [16] = test: Antibacterial activity against methicillin-resistant Staphylococcus aureus 1026211 clinical isolate after 20 to 24 hrs by two-fold microdilution method; type: functional
Staphylococcus aureus [17] = test: Antibacterial activity against methicillin-resistant Staphylococcus aureus 110432 clinical isolate after 20 to 24 hrs by two-fold microdilution method; type: functional
Staphylococcus aureus [18] = test: Antibacterial activity against methicillin-resistant Staphylococcus aureus 822030 clinical isolate after 20 to 24 hrs by two-fold microdilution method; type: functional
Staphylococcus aureus [19] = test: Antibacterial activity against methicillin-resistant Staphylococcus aureus 123152 clinical isolate after 20 to 24 hrs by two-fold microdilution method; type: functional
Staphylococcus aureus [20] = test: Antibacterial activity against methicillin-resistant Staphylococcus aureus 1025022 clinical isolate after 20 to 24 hrs by two-fold microdilution method; type: functional
Staphylococcus aureus [21] = test: Antibacterial activity against methicillin-resistant Staphylococcus aureus 504008 clinical isolate after 20 to 24 hrs by two-fold microdilution method; type: functional
Staphylococcus aureus [22] = test: Antibacterial activity against methicillin-resistant Staphylococcus aureus 1216052 clinical isolate after 20 to 24 hrs by two-fold microdilution method; type: functional
Staphylococcus aureus [23] = test: Antibacterial activity against methicillin-resistant Staphylococcus aureus 110328-1 clinical isolate after 20 to 24 hrs by two-fold microdilution method; type: functional
Staphylococcus aureus [24] = test: Antibacterial activity against methicillin-resistant Staphylococcus aureus 831024 clinical isolate after 20 to 24 hrs by two-fold microdilution method; type: functional
Staphylococcus aureus [25] = test: Antibacterial activity against methicillin-resistant Staphylococcus aureus 215073 clinical isolate after 20 to 24 hrs by two-fold microdilution method; type: functional
Staphylococcus aureus [26] = test: Antibacterial activity against methicillin-resistant Staphylococcus aureus 724244 clinical isolate after 20 to 24 hrs by two-fold microdilution method; type: functional
Staphylococcus aureus [27] = test: Antibacterial activity against methicillin-resistant Staphylococcus aureus 20534 clinical isolate after 20 to 24 hrs by two-fold microdilution method; type: functional
Staphylococcus aureus [28] = test: Antibacterial activity against methicillin-resistant Staphylococcus aureus 122045 clinical isolate after 20 to 24 hrs by two-fold microdilution method; type: functional
Staphylococcus aureus [29] = test: Antibacterial activity against methicillin-resistant Staphylococcus aureus 10281-2 clinical isolate after 20 to 24 hrs by two-fold microdilution method; type: functional
Staphylococcus aureus [30] = test: Antibacterial activity against methicillin-resistant Staphylococcus aureus 519238 clinical isolate after 20 to 24 hrs by two-fold microdilution method; type: functional
Staphylococcus aureus [31] = test: Antibacterial activity against methicillin-resistant Staphylococcus aureus 1019240 clinical isolate after 20 to 24 hrs by two-fold microdilution method; type: functional
Staphylococcus aureus [32] = test: Antibacterial activity against methicillin-resistant Staphylococcus aureus 1108204 clinical isolate after 20 to 24 hrs by two-fold microdilution method; type: functional
Staphylococcus aureus [33] = test: Antibacterial activity against methicillin-resistant Staphylococcus aureus 1211026 clinical isolate after 20 to 24 hrs by two-fold microdilution method; type: functional
Staphylococcus aureus [34] = test: Antibacterial activity against methicillin-resistant Staphylococcus aureus 1207026 clinical isolate after 20 to 24 hrs by two-fold microdilution method; type: functional
Staphylococcus aureus [35] = test: Antibacterial activity against methicillin-resistant Staphylococcus aureus 1103006 clinical isolate after 20 to 24 hrs by two-fold microdilution method; type: functional
Staphylococcus aureus [36] = test: Antibacterial activity against methicillin-resistant Staphylococcus aureus 912014 clinical isolate after 20 to 24 hrs by two-fold microdilution method; type: functional
Staphylococcus aureus [37] = test: Antibacterial activity against methicillin-resistant Staphylococcus aureus 625032 clinical isolate after 20 to 24 hrs by two-fold microdilution method; type: functional
Staphylococcus aureus [38] = test: Antibacterial activity against methicillin-resistant Staphylococcus aureus 121969 clinical isolate after 20 to 24 hrs by two-fold microdilution method; type: functional
Staphylococcus aureus [39] = test: Antibacterial activity against methicillin-resistant Staphylococcus aureus 1024010 clinical isolate after 20 to 24 hrs by two-fold microdilution method; type: functional
Staphylococcus aureus [40] = test: Antibacterial activity against methicillin-resistant Staphylococcus aureus 112106 clinical isolate after 20 to 24 hrs by two-fold microdilution method; type: functional
Staphylococcus aureus [41] = test: Antibacterial activity against methicillin-resistant Staphylococcus aureus 121026 clinical isolate after 20 to 24 hrs by two-fold microdilution method; type: functional
Staphylococcus aureus [42] = test: Antibacterial activity against methicillin-resistant Staphylococcus aureus 122710-2 clinical isolate after 20 to 24 hrs by two-fold microdilution method; type: functional
Staphylococcus aureus [43] = test: Antibacterial activity against methicillin-resistant Staphylococcus aureus 1212057-1 clinical isolate after 20 to 24 hrs by two-fold microdilution method; type: functional
Staphylococcus aureus [44] = test: Antibacterial activity against methicillin-resistant Staphylococcus aureus 130031 clinical isolate after 20 to 24 hrs by two-fold microdilution method; type: functional
Staphylococcus aureus [45] = test: Antibacterial activity against methicillin-resistant Staphylococcus aureus 221014 clinical isolate after 20 to 24 hrs by two-fold microdilution method; type: functional
Staphylococcus aureus [46] = test: Antibacterial activity against methicillin-resistant Staphylococcus aureus 316038 clinical isolate after 20 to 24 hrs by two-fold microdilution method; type: functional
Staphylococcus aureus [47] = test: Antibacterial activity against methicillin-resistant Staphylococcus aureus 11819 clinical isolate after 20 to 24 hrs by two-fold microdilution method; type: functional

CN(C)CCCCCOC(=O)c1c2c(n3cc(Br)ccc13)C(=O)c1ncccc1C2=O
0.063 mg/L: MIC (Staphylococcus aureus [16]) | MIC (Staphylococcus aureus [23])
16 mg/L: MIC (Staphylococcus aureus [4]) | MIC (Staphylococcus aureus [35])
4 mg/L: MIC (Staphylococcus aureus [22])
1 mg/L: MIC (Staphylococcus aureus [30])
0.125 mg/L: MIC (Staphylococcus aureus [5]) | MIC (Staphylococcus aureus [9]) | MIC (Staphylococcus aureus [12]) | MIC (Staphylococcus aureus [24]) | MIC (Staphylococcus aureus [26]) | MIC (Staphylococcus aureus [32]) | MIC (Staphylococcus aureus [34]) | MIC (Staphylococcus aureus [37]) | MIC (Staphylococcus aureus [41]) | MIC (Staphylococcus aureus [43]) | MIC (Staphylococcus aureus [47])
0.25 mg/L: MIC (Staphylococcus aureus [6]) | MIC (Staphylococcus aureus [8]) | MIC (Staphylococcus aureus [14]) | MIC (Staphylococcus aureus [15]) | MIC (Staphylococcus aureus [19]) | MIC (Staphylococcus aureus [28]) | MIC (Staphylococcus aureus [29]) | MIC (Staphylococcus aureus [33]) | MIC (Staphylococcus aureus [38]) | MIC (Staphylococcus aureus [39]) | MIC (Staphylococcus aureus [40]) | MIC (Staphylococcus aureus [42]) | MIC (Staphylococcus aureus [46])
0.5 mg/L: MIC (Staphylococcus aureus [1]) | MIC (Staphylococcus aureus [2]) | MIC (Staphylococcus aureus [3]) | MIC (Staphylococcus aureus [11]) | MIC (Staphylococcus aureus [13]) | MIC (Staphylococcus aureus [17]) | MIC (Staphylococcus aureus [18]) | MIC (Staphylococcus aureus [20]) | MIC (Staphylococcus aureus [21]) | MIC (Staphylococcus aureus [25]) | MIC (Staphylococcus aureus [27]) | MIC (Staphylococcus aureus [31]) | MIC (Staphylococcus aureus [36]) | MIC (Staphylococcus aureus [44]) | MIC (Staphylococcus aureus [45])
2 mg/L: MIC (Staphylococcus aureus [7])
Insoluble: solubility [10]

O=C1c2cccnc2C(=O)c2c1c(C(=O)OCCCCCN1CCOCC1)c1ccc(Br)cn21
0.25 mg/L: MIC (Staphylococcus aureus [32])
≤ 0.0078 mg/L: MIC (Staphylococcus aureus [3]) | MIC (Staphylococcus aureus [6]) | MIC (Staphylococcus aureus [12]) | MIC (Staphylococcus aureus [15]) | MIC (Staphylococcus aureus [16]) | MIC (Staphylococcus aureus [17]) | MIC (Staphylococcus aureus [25]) | MIC (Staphylococcus aureus [26]) | MIC (Staphylococcus aureus [29]) | MIC (Staphylococcus aureus [33]) | MIC (Staphylococcus aureus [34]) | MIC (Staphylococcus aureus [41]) | MIC (Staphylococcus aureus [42]) | MIC (Staphylococcus aureus [43]) | MIC (Staphylococcus aureus [47])
0.125 mg/L: MIC (Staphylococcus aureus [27]) | MIC (Staphylococcus aureus [30])
0.063 mg/L: MIC (Staphylococcus aureus [1]) | MIC (Staphylococcus aureus [2]) | MIC (Staphylococcus aureus [14]) | MIC (Staphylococcus aureus [21]) | MIC (Staphylococcus aureus [24]) | MIC (Staphylococcus aureus [28]) | MIC (Staphylococcus aureus [36]) | MIC (Staphylococcus aureus [37]) | MIC (Staphylococcus aureus [38]) | MIC (Staphylococcus aureus [44])
Insoluble: solubility [10]
0.031 mg/L: MIC (Staphylococcus aureus [5]) | MIC (Staphylococcus aureus [8]) | MIC (Staphylococcus aureus [9]) | MIC (Staphylococcus aureus [11]) | MIC (Staphylococcus aureus [18]) | MIC (Staphylococcus aureus [19]) | MIC (Staphylococcus aureus [20]) | MIC (Staphylococcus aureus [23]) | MIC (Staphylococcus aureus [31]) | MIC (Staphylococcus aureus [39]) | MIC (Staphylococcus aureus [40]) | MIC (Staphylococcus aureus [45]) | MIC (Staphylococcus aureus [46])
16 mg/L: MIC (Staphylococcus aureus [4]) | MIC (Staphylococcus aureus [7]) | MIC (Staphylococcus aureus [22]) | MIC (Staphylococcus aureus [35])
0.016 mg/L: MIC (Staphylococcus aureus [13])

O=C1c2cccnc2C(=O)c2c1c(C(=O)OCCCCCCN1CCOCC1)c1ccc(Br)cn21
Insoluble: solubility [10]
> 16 mg/L: MIC (Staphylococcus aureus [4]) | MIC (Staphylococcus aureus [35])
≤ 0.0078 mg/L: MIC (Staphylococcus aureus [1]) | MIC (Staphylococcus aureus [2]) | MIC (Staphylococcus aureus [3]) | MIC (Staphylococcus aureus [5]) | MIC (Staphylococcus aureus [6]) | MIC (Staphylococcus aureus [8]) | MIC (Staphylococcus aureus [9]) | MIC (Staphylococcus aureus [11]) | MIC (Staphylococcus aureus [12]) | MIC (Staphylococcus aureus [13]) | MIC (Staphylococcus aureus [14]) | MIC (Staphylococcus aureus [15]) | MIC (Staphylococcus aureus [16]) | MIC (Staphylococcus aureus [17]) | MIC (Staphylococcus aureus [18]) | MIC (Staphylococcus aureus [19]) | MIC (Staphylococcus aureus [20]) | MIC (Staphylococcus aureus [21]) | MIC (Staphylococcus aureus [23]) | MIC (Staphylococcus aureus [24]) | MIC (Staphylococcus aureus [25]) | MIC (Staphylococcus aureus [26]) | MIC (Staphylococcus aureus [27]) | MIC (Staphylococcus aureus [28]) | MIC (Staphylococcus aureus [29]) | MIC (Staphylococcus aureus [30]) | MIC (Staphylococcus aureus [31]) | MIC (Staphylococcus aureus [32]) | MIC (Staphylococcus aureus [33]) | MIC (Staphylococcus aureus [34]) | MIC (Staphylococcus aureus [36]) | MIC (Staphylococcus aureus [37]) | MIC (Staphylococcus aureus [38]) | MIC (Staphylococcus aureus [39]) | MIC (Staphylococcus aureus [40]) | MIC (Staphylococcus aureus [41]) | MIC (Staphylococcus aureus [42]) | MIC (Staphylococcus aureus [43]) | MIC (Staphylococcus aureus [44]) | MIC (Staphylococcus aureus [45]) | MIC (Staphylococcus aureus [46]) | MIC (Staphylococcus aureus [47])
16 mg/L: MIC (Staphylococcus aureus [7]) | MIC (Staphylococcus aureus [22])

Reference: ChEMBL document CHEMBL4004803, “Syntheses and antibacterial activity of soluble 9-bromo substituted indolizinoquinoline-5,12-dione derivatives” (Eur J Med Chem, 2017)
